Among the data in patent US11008304B2, “Tetrazole containing apoptosis signal-regulating kinase 1 inhibitors and methods of use thereof” (ENANTA PHARMACEUTICALS, INC., priority 2018, dated 2021) are IC50 values, retold here.

Chain of ASK1 kinase (Q99683 whole entry): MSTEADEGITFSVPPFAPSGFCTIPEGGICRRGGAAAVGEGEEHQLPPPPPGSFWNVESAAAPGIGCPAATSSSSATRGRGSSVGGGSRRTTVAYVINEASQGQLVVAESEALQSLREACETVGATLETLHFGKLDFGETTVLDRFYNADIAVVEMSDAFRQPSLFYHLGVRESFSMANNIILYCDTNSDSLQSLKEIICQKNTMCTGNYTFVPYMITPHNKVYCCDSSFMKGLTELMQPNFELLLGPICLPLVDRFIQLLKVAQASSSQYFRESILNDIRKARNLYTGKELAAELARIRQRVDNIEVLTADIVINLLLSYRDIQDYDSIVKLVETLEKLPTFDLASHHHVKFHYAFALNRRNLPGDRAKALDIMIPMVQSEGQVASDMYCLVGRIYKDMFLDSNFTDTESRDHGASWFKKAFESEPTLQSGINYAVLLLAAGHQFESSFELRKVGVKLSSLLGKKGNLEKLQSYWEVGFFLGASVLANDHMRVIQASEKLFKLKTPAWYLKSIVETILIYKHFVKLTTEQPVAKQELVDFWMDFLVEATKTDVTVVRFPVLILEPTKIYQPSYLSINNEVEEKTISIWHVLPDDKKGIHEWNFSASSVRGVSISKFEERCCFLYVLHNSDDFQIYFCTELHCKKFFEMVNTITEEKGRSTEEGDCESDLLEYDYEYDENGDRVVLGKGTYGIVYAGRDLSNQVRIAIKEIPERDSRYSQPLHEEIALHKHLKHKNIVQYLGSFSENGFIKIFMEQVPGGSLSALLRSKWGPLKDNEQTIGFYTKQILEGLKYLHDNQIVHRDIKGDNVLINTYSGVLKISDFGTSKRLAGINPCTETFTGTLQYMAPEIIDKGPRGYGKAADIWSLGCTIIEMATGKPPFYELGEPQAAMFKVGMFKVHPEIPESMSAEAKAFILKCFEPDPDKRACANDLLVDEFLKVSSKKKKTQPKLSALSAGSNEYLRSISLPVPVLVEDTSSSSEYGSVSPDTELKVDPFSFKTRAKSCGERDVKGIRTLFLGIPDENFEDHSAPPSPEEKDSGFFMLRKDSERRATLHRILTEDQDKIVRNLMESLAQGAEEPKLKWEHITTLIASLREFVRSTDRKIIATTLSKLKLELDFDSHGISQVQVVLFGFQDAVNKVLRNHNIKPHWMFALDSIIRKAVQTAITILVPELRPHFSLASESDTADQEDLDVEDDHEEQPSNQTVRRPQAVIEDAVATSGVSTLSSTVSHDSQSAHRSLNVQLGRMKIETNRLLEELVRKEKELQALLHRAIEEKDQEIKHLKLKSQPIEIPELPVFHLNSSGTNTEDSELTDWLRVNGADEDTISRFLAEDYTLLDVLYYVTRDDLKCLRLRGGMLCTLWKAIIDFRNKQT

For the experiment, the target named is ASK1 kinase (Homo sapiens (Human), UniProt Q99683). Put plainly: HTRF KinEASE assay of ASK1 kinase activity inhibition. Conditions: 5 nM ASK1, 1 uM STK3 peptide substrate, 100 uM ATP, TR-FRET readout. It is filed as biochemical. The procedure:
The ability (IC50) of compounds to inhibit ASK1 kinase activity was determined by HTRF® KinEASE™ Assay System. ASK1 was purchased from Thermofisher (Catalogue #PV4011), ATP was purchased from Sigma (Catalogue #A7699), HTRF® KinEASE™ Assay System was obtained from Cisbio (Bedford, Mass.). ½ Area plate was purchased from Perkin Elmer (Catalogue ##6005560). HTRF® KinEASE™-STK is a generic method for measuring serine/threonine kinase activities using a time-resolved fluorescence resonance energy transfer (TR-FRET) immunoassay. The IC50 value for each compound was determined in the presence of compound (various concentration from 0 to 10 μM) and a fixed amount of ATP and peptide substrates. The test compound, 1 uM STK3 peptide substrate, and 5 nM of ASK1 kinase are incubated with kinase reaction buffer containing 50 mM HEPES pH 7.5, 0.01% BRIJ-35, 10 mM MgCl2, and 1 mM EGTA for 30 minutes. 100 uM ATP is added to start kinase reaction and incubated for 3 hours. The STK3-antibody labeled with Eu^3+-Cryptate and 125 nM streptavidin-XL665 are mixed in a single addition with stop reagents provided by the Cisbio kit used to stop the kinase reaction. Fluorescence is detected using an Envision Multilabeled 2014 reader from PerkinElmer. The Fluorescence is measured at 615 nm (Cryptate) and 665 nm (XL665) and a ratio of 665 nm/615 nm is calculated for each well. The resulting TR-FRET is proportional to the phosphorylation level. Staurosporine was used as the positive control. IC50 was determined by XLfit 5.3. By using above method, the inhibition of ASK1 was tested for the compound of formula (I). IC50 ranges are as follows: A<1 nM; 1 nM<B<10 nM; 10 nM<C<100 nM; 100 nM<D<1 μM; E>1 μM.
(TR-FRET usually uses a lanthanide donor and a delayed reading to cut background.)
A word on the IC50: it is the concentration that gives 50% inhibition. Read a high IC50 as a need for much substance. As for `CC(C)n1nnnc1-c1cccc(NC(=O)c2cc(-c3cnn(C4CC4)c3)ccn2)n1` [Example 1], the IC50 is 10 to 100 nM.

Turning to `Cc1cnc(C(=O)Nc2cccc(-c3nnnn3C(C)C)n2)cc1-c1cnn(C2CC2)c1` [Example 2], the IC50 is 10 to 100 nM.

In turn, `CC(C)n1nnnc1-c1cccc(NC(=O)c2cc(-c3cnn(C4CC4)c3)c(F)cn2)n1` [Example 3] came in with an IC50 of 10 to 100 nM.

With `CC(C)n1nnnc1-c1cccc(NC(=O)c2cc(-c3cnn(C4CC4)c3)c(N3CCCC3)cn2)n1` [Example 4], the IC50 is 10 to 100 nM.

Take `CC(C)n1nnnc1-c1cccc(NC(=O)c2cc(-c3cnn(C4CC4)c3)c(N3CCCCC3)cn2)n1` [Example 5]: the IC50 is 10 to 100 nM.

Compound `CC(C)n1nnnc1-c1cccc(NC(=O)c2cc(-c3cnn(C4CC4)c3)c(N3CCOCC3)cn2)n1` [Example 6] came in with an IC50 of 1 to 10 nM.

`CC(C)n1nnnc1-c1cccc(NC(=O)c2cc(-c3cnn(C4CC4)c3)c(N3CCN(C)CC3)cn2)n1` [Example 7] showed an IC50 of 1 to 10 nM.

With `CC(C)n1nnnc1-c1nc(NC(=O)c2cc(-c3cnn(C4CC4)c3)c(F)cn2)cs1` [Example 8], the IC50 fell in the range of 10 to 100 nM.

On to `CC(C)n1nnnc1-c1nc(NC(=O)c2cc(-c3cnn(C4CC4)c3)c(N3CCCC3)cn2)cs1` [Example 9], for which the IC50 lay within 1 to 10 nM.

`CC(C)n1nnnc1-c1nc(NC(=O)c2cc(-c3cnn(C4CC4)c3)c(N3CCOCC3)cn2)cs1` [Example 10]: the IC50 was in the range of 1 to 10 nM.

The compound `CC(C)n1nnnc1-c1nc(NC(=O)c2cc(-c3cnn(C4CC4)c3)c(N3CCCCC3)cn2)cs1` [Example 11] gave an IC50 of 10 to 100 nM.

For the compound `CC(C)n1nnnc1-c1nc(NC(=O)c2cc(-c3cnn(C4CC4)c3)c(N3CCN(C)CC3)cn2)cs1` [Example 12], the half-inhibitory concentration (IC50) is 1 to 10 nM.

Regarding `Cc1cnc(C(=O)Nc2cccc(-c3nnnn3[C@H](C)CO)n2)cc1-c1cnn(C2CC2)c1` [Example 13], the half-maximal inhibitory concentration (IC50) was in the range of 1 to 10 nM.

As for `CC(C)n1nnnc1-c1cccc(NC(=O)c2cc(-c3cnn(C4CC4)c3)c(C(F)(F)F)cn2)n1` [Example 14], the IC50 is 10 to 100 nM.

In the case of `CC(C)n1nnnc1-c1nc(NC(=O)c2cc(-c3cnn(C4CC4)c3)c(C(F)(F)F)cn2)cs1` [Example 15], the IC50 was 10 to 100 nM.

As to `C[C@H](CO)n1nnnc1-c1cccc(NC(=O)c2cc(-c3cnn(C4CC4)c3)c(C(F)(F)F)cn2)n1` [Example 16], the IC50 fell in the range of 1 to 10 nM.

With `Cc1cnc(C(=O)Nc2cccc(-n3nnnc3C(C)C)n2)cc1-c1cnn(C2CC2)c1` [Example 17], the IC50 is 10 to 100 nM.

In turn, `CC(C)n1nnnc1-c1cccc(NC(=O)c2cc(-c3cnn(C4CC4)c3)c(C(F)F)cn2)n1` [Example 18] yielded an IC50 of 1 to 10 nM.

`CC(C)n1nnnc1-c1nc(NC(=O)c2cc(-c3cnn(C4CC4)c3)c(C(F)F)cn2)cs1` [Example 19] yielded an IC50 of 1 to 10 nM.

`Cc1cnc(C(=O)Nc2cccc(-c3nnnn3C(C)C)n2)cc1-c1cnn(C(C)(C)C)c1` [Example 20] displayed an IC50 of 1 to 10 nM.

Turning to `Cc1cnc(C(=O)Nc2cccc(-n3nnnc3C(C)C)n2)cc1-c1cnn(C(C)(C)C)c1` [Example 21], the IC50 was 10 to 100 nM.

In the case of `Cc1cnc(C(=O)Nc2cccc(-c3nnnn3[C@H](C)CO)n2)cc1-c1cnn(C(C)(C)C)c1` [Example 22], the IC50 lay within 1 to 10 nM.

As for `Cc1cnc(C(=O)Nc2cccc(-c3nnnn3C(C)C)n2)cc1-c1cn(C(C)C)cn1` [Example 23], the IC50 is 10 to 100 nM.

On to `Cc1cnc(C(=O)Nc2cccc(-n3nnnc3C(C)C)n2)cc1-c1cn(C(C)C)cn1` [Example 24], for which the IC50 was over 1000 nM.

Compound `Cc1cnc(C(=O)Nc2cccc(-c3nnnn3[C@H](C)CO)n2)cc1-c1cn(C(C)C)cn1` [Example 25] gave an IC50 of 1 to 10 nM.

Consider `Cc1cnc(C(=O)Nc2cccc(-c3nnnn3C(C)C)n2)cc1-c1cnn(C(C)C)c1` [Example 26], for which the IC50 was in the range of 1 to 10 nM.

The compound `Cc1cnc(C(=O)Nc2cccc(-n3nnnc3C(C)C)n2)cc1-c1cnn(C(C)C)c1` [Example 27] displayed an IC50 of 1 to 10 nM.

The compound `Cc1cnc(C(=O)Nc2cccc(-c3nnnn3[C@H](C)CO)n2)cc1-c1cnn(C(C)C)c1` [Example 28] returned an IC50 of 1 to 10 nM.

For the compound `C[C@H](CO)n1nnnc1-c1cccc(NC(=O)c2cc(-c3cnn(C4CC4)c3)c(C(F)F)cn2)n1` [Example 29], the IC50 was 1 to 10 nM.

In turn, `Cc1cnc(C(=O)Nc2cccc(-c3nnnn3C(C)C)n2)cc1-c1cnn(C(F)(F)F)c1` [Example 30] had an IC50 of 10 to 100 nM.

Compound `Cc1cnc(C(=O)Nc2cccc(-n3nnnc3C(C)C)n2)cc1-c1cnn(C(F)(F)F)c1` [Example 31] yielded an IC50 of over 1000 nM.

`Cc1cnc(C(=O)Nc2cccc(-c3nnnn3[C@H](C)CO)n2)cc1-c1cnn(C(F)(F)F)c1` [Example 32] yielded an IC50 of 1 to 10 nM.

With `Cc1cnc(C(=O)Nc2cccc(-c3nnnn3C(C)C)n2)cc1-c1ccn(C(C)C)n1` [Example 33], the IC50 lay in the range of 10 to 100 nM.

`Cc1cnc(C(=O)Nc2cccc(-n3nnnc3C(C)C)n2)cc1-c1ccn(C(C)C)n1` [Example 34] had a 50% inhibitory concentration (IC50) of over 1000 nM.

In the case of `Cc1cnc(C(=O)Nc2cccc(-c3nnnn3[C@H](C)CO)n2)cc1-c1ccn(C(C)C)n1` [Example 35], the half-inhibitory concentration (IC50) lay within 1 to 10 nM.

For the compound `Cc1cnc(C(=O)Nc2cccc(-c3nnnn3C(C)C)n2)cc1-c1ccccn1` [Example 36], the IC50 is 10 to 100 nM.

`Cc1cnc(C(=O)Nc2cccc(-c3nnnn3C(C)C)n2)cc1-c1cccnc1` [Example 37] displayed an IC50 of 1 to 10 nM.

Compound `Cc1cnc(C(=O)Nc2cccc(-c3nnnn3C(C)C)n2)cc1-c1ccncc1` [Example 38] came in with an IC50 of 10 to 100 nM.

`Cc1ncc(-c2cc(C(=O)Nc3cccc(-c4nnnn4C(C)C)n3)ncc2C)s1` [Example 39]: the IC50 lay within 1 to 10 nM.

As for `Cc1nc(-c2cc(C(=O)Nc3cccc(-c4nnnn4C(C)C)n3)ncc2C)cs1` [Example 40], the IC50 fell in the range of 10 to 100 nM.

Regarding `Cc1cnc(C(=O)Nc2cccc(-c3nnnn3[C@H](C)CO)n2)cc1-c1cccnc1` [Example 41], the IC50 fell in the range of 1 to 10 nM.

The compound `Cc1cnc(C(=O)Nc2cccc(-c3nnnn3C(C)C)n2)cc1-c1cnc(C2CC2)s1` [Example 42] registered an IC50 of 1 to 10 nM.

Turning to `Cc1cnc(C(=O)Nc2cccc(-c3nnnn3[C@H](C)CO)n2)cc1-c1cnc(C2CC2)s1` [Example 43], the IC50 lay within 1 to 10 nM.

As for `Cc1cnc(C(=O)Nc2cccc(-c3nnnn3C(C)C)n2)cc1-c1ccc(C2CC2)s1` [Example 44], the IC50 lay within 10 to 100 nM.

`Cc1cnc(C(=O)Nc2cccc(-c3nnnn3[C@H](C)CO)n2)cc1-c1ccc(C2CC2)s1` [Example 45]: the IC50 lay within 1 to 10 nM.

Compound `Cc1cc(F)c(C(=O)Nc2cccc(-c3nnnn3C(C)C)n2)cc1-c1cnn(C2CC2)c1` [Example 46] came in with an IC50 of 1 to 10 nM.

As for `Cc1cc(F)c(C(=O)Nc2cccc(-c3nnnn3[C@H](C)CO)n2)cc1-c1cnn(C2CC2)c1` [Example 47], the IC50 lay in the range of 1 to 10 nM.

In turn, `Cc1cc(F)c(C(=O)Nc2cccc(-c3nnnn3C(C)C)n2)cc1-c1cnn(C(C)C)c1` [Example 49] registered an IC50 of 1 to 10 nM.

As for `Cc1cc(F)c(C(=O)Nc2cccc(-c3nnnn3[C@H](C)CO)n2)cc1-c1cnn(C(C)C)c1` [Example 50], the IC50 lay in the range of 1 to 10 nM.

`Cc1cc(F)c(C(=O)Nc2cccc(-n3nnnc3C(C)C)n2)cc1-c1cnn(C(C)C)c1` [Example 51]: the IC50 was 1 to 10 nM.

The compound `Cc1cc(F)c(C(=O)Nc2cccc(-c3nnnn3C(C)C)n2)cc1-c1cnn(C(C)(C)C)c1` [Example 52] came in with an IC50 of 1 to 10 nM.

In turn, `Cc1cc(F)c(C(=O)Nc2cccc(-n3nnnc3C(C)C)n2)cc1-c1cnn(C(C)(C)C)c1` [Example 53] gave an IC50 of 1 to 10 nM.

For the compound `Cc1cc(F)c(C(=O)Nc2cccc(-c3nnnn3[C@H](C)CO)n2)cc1-c1cnn(C(C)(C)C)c1` [Example 54], the IC50 was in the range of 1 to 10 nM.

Compound `Cc1cc(F)c(C(=O)Nc2cccc(-c3nnnn3C(C)C)n2)cc1-c1cnn(C(F)(F)F)c1` [Example 55] displayed an IC50 of 10 to 100 nM.

Compound `Cc1cc(F)c(C(=O)Nc2cccc(-n3nnnc3C(C)C)n2)cc1-c1cnn(C(F)(F)F)c1` [Example 56] registered an IC50 of 100 to 1000 nM.

Consider `Cc1cc(F)c(C(=O)Nc2cccc(-c3nnnn3[C@H](C)CO)n2)cc1-c1cnn(C(F)(F)F)c1` [Example 57], for which the IC50 was in the range of 1 to 10 nM.

`Cc1cc(F)c(C(=O)Nc2cccc(-c3nnnn3C(C)C)n2)cc1-c1ccn(C(C)C)n1` [Example 58] displayed a half-inhibitory concentration (IC50) of 10 to 100 nM.

Regarding `Cc1cc(F)c(C(=O)Nc2cccc(-n3nnnc3C(C)C)n2)cc1-c1ccn(C(C)C)n1` [Example 59], the half-inhibitory concentration (IC50) is over 1000 nM.

`Cc1cc(F)c(C(=O)Nc2cccc(-c3nnnn3[C@H](C)CO)n2)cc1-c1ccn(C(C)C)n1` [Example 60] showed an IC50 of 10 to 100 nM.

In turn, `Cc1cc(F)c(C(=O)Nc2cccc(-c3nnnn3C(C)C)n2)cc1-c1cn(C(C)C)cn1` [Example 61] came in with a half-maximal inhibitory concentration (IC50) of 10 to 100 nM.

Turning to `Cc1cc(F)c(C(=O)Nc2cccc(-n3nnnc3C(C)C)n2)cc1-c1cn(C(C)C)cn1` [Example 62], the 50% inhibitory concentration (IC50) is over 1000 nM.
